According to patent US20230355501A1, “COSMETIC COMPOSITION” (AJINOMOTO CO., INC., priority 2021, published 2023):

Assay: Melting point of PHC compositions by differential scanning calorimeter
Format: physicochemical
Conditions: DSC7000X, approx. 2 mg, nitrogen atmosphere, from 25° C. at 5° C./min
Procedure: PHCs in a mixing ratio shown in Table 2 were mixed in a mortar, to prepare each sample.
Each sample in an amount of approximately 2 mg was heated under a nitrogen atmosphere using a differential scanning calorimeter DSC7000X (Hitachi High-Tech Science Corporation) with the temperature raised from 25° C. at a rate of 5° C./min. The temperature at the intersection of the base line and the inflection point of endothermic peak was taken as the melting point of the sample.

| Melting point | Compound |
| --- | --- |
| 126.2 °C | CCCCCCCCCCCCCCCCCC(=O)NC(CO)C(O)C(O)CCCCCCCCCCCCCCCC (stereo not drawn) [Sample 13, C18:0-PHS20:0] |
| 124.2 °C | CCCCCCCCCCCCCCCCCC(=O)NC(CO)C(O)C(O)CCCCCCCCCCCCCC (stereo not drawn) [Sample 12, C18:0-PHS18:0] |
| 122.0 °C | CCCCCCCCCCCCCCCCCC(=O)NC(CO)C(O)C(O)CCCCCCCCCCCC (stereo not drawn) [Sample 11, C18:0-PHS16:0] |
